# Source: patent publication US12054494B2, “Compound with anticancer activity” (KYOWA KIRIN CO., LTD., priority 2018, dated 2024)
# Tested on: SU-DHL-4 cells
# Assay: Inhibitory effect on cell viability (Cell Counting Kit-8)
# Format: cell-based
# Details: Homo sapiens, 72 hours culture with test compound, concentration showing 90% inhibition rate of cell viability
# Procedure: Inhibitiory Effect on Cell Viability
# SU-DHL-4 cells (Code No. ACC 495, Deutsche Sammlung von Mikroorganismen and Zellkulturen GmbH) were cultured at 37° C. using a carbon dioxide incubator (95% air, 5% CO2) in RPMI1640 medium (Code No. 11875-093, Thermo Fisher Scientific) in which inactivated fetal bovine serum (FBS: Code No. 10099-148, Thermo Fisher Scientific) in an amount to give a final concentration of 10 vol % and penicillin/streptomycin solution (PS: Code No. 15140-122, Thermo Fisher Scientific) in an amount to give a final concentration of 1 vol % were added. The cells were passaged twice a week at a volume of 20-40 mL so as to maintain a cell concentration of 1×10^6 cells/mL or less.
# The cultured SU-DHL-4 cells were seeded at 2000 cells/well in a transparent 384-well plate (Code No. 781182, Greiner bio-one). After seeding, the cells were precultured at 37° C. in a carbon dioxide gas incubator for 18 to 25 hours. Next, 1, 0.1 or 0.01 mmol/L DMSO solution of the test compound was prepared and a 9-step dilution series were prepared so that the concentration will be 200 times the final concentration in the RPMI1640 medium containing the above FBS and PS, and 1/200 volume of the dilution series were added to each well. At this time, the final concentration of DMSO was adjusted to be 0.1 vol %. After adding the test compound, the cells were cultured at 37° C. in a carbon dioxide gas incubator for 72 hours. Next, 0.020 mL of Cell Counting Kit-8 (Code No. CK04, DOJINDO) solution diluted 2-fold or 4-fold with phosphate buffered saline (PBS) was added to each well. Color reaction was carried out in a carbon dioxide gas incubator at 37° C. for 2 to 3 hours, and the absorbance at a wavelength of 450 nm was measured using SpectraMax 340PC (Molecular Devices). The inhibition rate of cell viability was calculated by the following formula, and the concentration of the test compound (IC90 value) showing a 90% inhibition rate of cell viability was calculated. Inhibition rate of cell viability (%)=100−(A−B)/(C−B)×100 • A: Absorbance of a well containing test compound • B: Absorbance of a well without addition of cells • C: Absorbance of a well without addition of test compound
row,SMILES,IC90
1,"CCC(=O)N1c2ccccc2[C@H](Nc2ccc(C(=O)N3CCCN(C(=O)c4ccc(N[C@@H]5C[C@H](C)N(C(=O)CC)c6ccccc65)cc4)CC3)cc2)C[C@@H]1C [Compound 6p, 1,1′-((2S,2′S,4R,4′R)-(((1,4-Diazepane-1,4-dicarbonyl)bis(4,1-phenylene))bis(azanediyl))bis(2-methyl-3,4-dihydroquinoline-4,1(2H)-diyl))bis(propan-1-one)]",41.5 nM
2,"CCC(=O)N1c2ccccc2[C@H](Nc2ccc(NC(=O)CCSc3ccc(N[C@@H]4C[C@H](C)N(C(=O)CC)c5ccccc54)cc3)cc2)C[C@@H]1C (relative stereo) [Compound 4e, N-(4-{[(2S*,4R*)-2-Methyl-1-propionyl-1,2,3,4-tetrahydroquinolin-4-yl]amino}phenyl)-3-[(4-{[(2S,4R)-2-methyl-1-propionyl-1,2,3,4-tetrahydroquinolin-4-yl]amino}phenyl)thio]propanamide]",0.34 nM
3,"Cc1sc2c(c1C)C(c1ccc(NC(=O)C#CCNC(=O)c3ccc(C4=NCc5nnc(C)n5-c5sc(C)c(C)c54)cc3)cc1)=NCc1nnc(C)n1-2 [Compound 14e, N-(4-Oxo-4-((4-(2,3,9-trimethyl-6H-thieno[3,2-f][1,2,4]triazolo[4,3-a][1,4]diazepin-4-yl)phenyl)amino)but-2-yn-1-yl)-4-(2,3,9-trimethyl-6H-thieno[3,2-f][1,2,4]triazolo[4,3-a][1,4]diazepin-4-yl)benzamide]",0.26 nM
4,"CCC(=O)N1c2ccccc2[C@H](Nc2ccc(NC(=O)C3CN(C(=O)N4CCC(N[C@@H]5C[C@H](C)N(C(=O)CC)c6ccccc65)CC4)C3)cc2)C[C@@H]1C [Compound 10a, N-(4-(((2S,4R)-2-Methyl-1-propionyl-1,2,3,4-tetrahydroquinolin-4-yl)amino)phenyl)-1-(4-(((2S,4R)-2-methyl-1-propionyl-1,2,3,4-tetrahydroquinolin-4-yl)amino)piperidine-1-carbonyl)azetidine-3-carboxamide]",2.4 nM
5,"CCC(=O)N1c2ccc(F)cc2[C@H](Nc2ccc(C(=O)NCCNC(=O)c3ccc(N[C@@H]4C[C@H](C)N(C(=O)CC)c5ccc(F)cc54)cc3)cc2)C[C@@H]1C [Compound 10r, N,N′-(Ethane-1,2-diyl)bis(4-(((2S,4R)-6-fluoro-2-methyl-1-propionyl-1,2,3,4-tetrahydroquinolin-4-yl)amino)benzamide)]",9.16 nM
6,"CCC(=O)N1c2ccccc2[C@H](Nc2ccc(OCCCNC(=O)c3ccc(N[C@@H]4C[C@H](C)N(C(=O)CC)c5ccccc54)cc3)cc2)C[C@@H]1C [Compound 5p, 4-(((2S,4R)-2-Methyl-1-propionyl-1,2,3,4-tetrahydroquinolin-4-yl)amino)-N-(3-(4-(((2S,4R)-2-methyl-1-propionyl-1,2,3,4-tetrahydroquinolin-4-yl)amino)phenoxy)propyl)benzamide]",2.68 nM
7,"CCC(=O)N1c2ccccc2[C@H](Nc2ccc(C(=O)NCCC(=O)Nc3ccc(N[C@@H]4C[C@H](C)N(C(=O)CC)c5ccccc54)nc3)cc2)C[C@@H]1C (relative stereo) [Compound 10o, 4-(((2S,4R)-2-Methyl-1-propionyl-1,2,3,4-tetrahydroquinolin-4-yl)amino)-N-(3-((6-(((2S*,4R*)-2-methyl-1-propionyl-1,2,3,4-tetrahydroquinolin-4-yl)amino)pyridin-3-yl)amino)-3-oxopropyl)benzamide]",1.48 nM
8,"CCC(=O)N1c2ccccc2[C@H](Nc2ccc(NC(=O)C3CCN(C(=O)c4ccc(N[C@@H]5C[C@H](C)N(C(=O)CC)c6ccccc65)cc4)CC3)cc2)C[C@@H]1C (relative stereo) [Compound 2g, 1-(4-{[(2S,4R)-2-Methyl-1-propionyl-1,2,3,4-tetrahydroquinolin-4-yl]amino}benzoyl)-N-(4-{[(2S*,4R*)-2-methyl-1-propionyl-1,2,3,4-tetrahydroquinolin-4-yl]amino}phenyl)piperidine-4-carboxamide]",0.63 nM
9,"CCC(=O)N1c2ccccc2[C@H](Nc2ccc(C(=O)NCc3cn(-c4ccc(N[C@@H]5C[C@H](C)N(C(=O)CC)c6ccccc65)cc4)nn3)cc2)C[C@@H]1C [Compound 3a, 4-{[(2S,4R)-2-Methyl-1-propionyl-1,2,3,4-tetrahydroquinolin-4-yl]amino}-N-{[1-(4-{[(2S,4R)-2-methyl-1-propionyl-1,2,3,4-tetrahydroquinolin-4-yl]amino}phenyl)-1H-1,2,3-triazol-4-yl]methyl}benzamide]",0.04 nM
10,"CCC(=O)N1c2ccccc2[C@H](Nc2ccc(NC(=O)CN3CC=C(c4ccc(N[C@@H]5C[C@H](C)N(C(=O)CC)c6ccccc65)cc4)CC3)cc2)C[C@@H]1C [Compound 5k, N-(4-(((2S,4R)-2-Methyl-1-propionyl-1,2,3,4-tetrahydroquinolin-4-yl)amino)phenyl)-2-(4-(4-(((2S,4R)-2-methyl-1-propionyl-1,2,3,4-tetrahydroquinolin-4-yl)amino)phenyl)-3,6-dihydropyridin-1(2H)-yl)acetamide]",7.48 nM
11,"CCC(=O)N1c2ccccc2[C@H](Nc2ccc(NC(=O)CC(C)CC(=O)Nc3ccc(N[C@@H]4C[C@H](C)N(C(=O)CC)c5ccccc54)cc3)cc2)C[C@@H]1C (relative stereo) [Compound 4b, 3-Methyl-N^1,N^5-bis(4-{[(2S*,4R*)-2-methyl-1-propionyl-1,2,3,4-tetrahydroquinolin-4-yl]amino}phenyl)pentanediamide]",5.87 nM
12,"CCC(=O)N1c2ccccc2[C@H](Nc2ccc(NC(=O)[C@@H]3CCN(C(=O)c4ccc(N[C@@H]5C[C@H](C)N(C(=O)CC)c6ccccc65)cc4)C3)cc2)C[C@@H]1C (relative stereo) [Compound 2i, (R)-1-(4-{[(2S,4R)-2-Methyl-1-propionyl-1,2,3,4-tetrahydroquinolin-4-yl]amino}benzoyl)-N-(4-{[(2S*,4R*)-2-methyl-1-propionyl-1,2,3,4-tetrahydroquinolin-4-yl]amino}phenyl)pyrrolidine-3-carboxamide]",1.84 nM
13,"CCC(=O)N1c2ccccc2[C@H](Nc2ccc(C(=O)N3CC(NC(=O)c4ccc(C5=N[C@@H](CC(=O)OC(C)(C)C)c6nnc(C)n6-c6sc(C)c(C)c65)cc4)C3)cc2)C[C@@H]1C [Compound 1n, tert-Butyl 2-[(S)-2,3,9-trimethyl-4-(4-{[1-(4-{[(2S,4R)-2-methyl-1-propionyl-1,2,3,4-tetrahydroquinolin-4-yl]amino}benzoyl)azetidin-3-yl]carbamoyl}phenyl)-6H-thieno[3,2-f][1,2,4]triazolo[4,3-a][1,4]diazepin-6-yl]acetate]",0.49 nM
14,"CCC(=O)N1c2ccccc2[C@H](Nc2ccc(C(=O)NCCc3cn(-c4ccc(N[C@@H]5C[C@H](C)N(C(=O)CC)c6ccccc65)cc4)nn3)cc2)C[C@@H]1C [Compound 6c, 4-(((2S,4R)-2-Methyl-1-propionyl-1,2,3,4-tetrahydroquinolin-4-yl)amino)-N-(2-(1-(4-(((2S,4R)-2-methyl-1-propionyl-1,2,3,4-tetrahydroquinolin-4-yl)amino)phenyl)-1H-1,2,3-triazol-4-yl)ethyl)benzamide]",0.83 nM
15,"CCC(=O)N1c2ccccc2[C@H](Nc2ccc(NC(=O)CCCC(=O)Nc3ccc(N[C@@H]4C[C@H](C)N(C(=O)CC)c5cc(CCCN)ccc54)cc3)cc2)C[C@@H]1C (relative stereo) [Compound 10s, N^1-(4-(((2S*,4R*)-7-(3-Aminopropyl)-2-methyl-1-propionyl-1,2,3,4-tetrahydroquinolin-4-yl)amino)phenyl)-N^5-(4-(((2S,4R)-2-methyl-1-propionyl-1,2,3,4-tetrahydroquinolin-4-yl)amino)phenyl)glutaramide]",21.7 nM
16,"CCC(=O)N1c2ccccc2[C@H](Nc2ccc(CNCCn3cc(-c4ccc(N[C@@H]5C[C@H](C)N(C(=O)CC)c6ccccc65)cc4)cn3)cc2)C[C@@H]1C [Compound 5f, 1-((2S,4R)-2-Methyl-4-((4-(((2-(4-(4-(((2S,4R)-2-methyl-1-propionyl-1,2,3,4-tetrahydroquinolin-4-yl)amino)phenyl)-1H-pyrazol-1-yl)ethyl)amino)methyl)phenyl)amino)-3,4-dihydroquinolin-1(2H)-yl)propan-1-one]",24.7 nM
17,"CCC(=O)N1c2ccccc2[C@H](Nc2ccc(NC(=O)CCNC(=O)c3ccc(C4=N[C@@H](CC(=O)OC(C)(C)C)c5nnc(C)n5-c5sc(C)c(C)c54)cc3)cc2)C[C@@H]1C (relative stereo) [Compound 13i, tert-Butyl 2-((S)-2,3,9-trimethyl-4-(4-((3-((4-(((2S*,4R*)-2-methyl-1-propionyl-1,2,3,4-tetrahydroquinolin-4-yl)amino)phenyl)amino)-3-oxopropyl)carbamoyl)phenyl)-6H-thieno[3,2-f][1,2,4]triazolo[4,3-a][1,4]diazepin-6-yl)acetate]",3.37 nM
